Broadly, the IC50 is the concentration at which inhibition is half-maximal. A word on the Kd: it is the equilibrium constant for the complex coming apart.

Like-named read-outs stand apart in the source and are kept apart here. Residues, ends and D or L forms follow the SMILES beside them. A value given as a limit tells only on which side of the number the result lay.

The target in one series is MDM2 (res 2-125) (Homo sapiens, UniProt Q00987). Kind of series: Fluorescence anisotropy titration, binding to MDM2. How it is done:
Titration experiments were run on a Horiba Jobin Yvon fluorimeter equipped with the Hamilton Microlab titrator controlled by laboratory software. […] The slit widths for excitation and emission were 5 nm and 15 nm and the integration time 10 s was used for each measurement. The intrinsic fluorescence of tryptophan in peptides 10, 48 was used to measure their binding affinity for MDM2 (res 2-125). The experiments were performed at 23C° in PBS, 5 mM DTT. Usually 250 μl of MDM2 (150 μM) was titrated into 1.2 ml of peptide (1 uM). Titration data were analyzed with a standard 1:1 binding model by using the quadratic solution to the equilibrium Kd=[A][B]/[AB]. […] The fitting equation contained an extra term to account for linear drift.
In general terms: Polarisation of emitted light reports the rotation of a fluorescent probe.

Series [1] has as its target T1, human plasma kallikrein (Homo sapiens, UniProt P03952).
T1 construct: purchased Innovative Research, Southfiled, USA
The experiment in a line: Inhibition of human plasma kallikrein, fluorogenic substrate Z-Phe-Arg-AMC. Conditions: for inhibition of human plasma kallikrein, fold weaker than parental inhibitor PK15: tricyclic peptides. The series is classed as biochemical. How it is done:
Fluorescence intensities were recorded for 1 hour with excitation and emission wavelengths of 355 nm and 460 nm on a fluorescence plate reader (Molecular Devices, Sunnyvale, USA).

In series [2] the target is T1, human plasma kallikrein. The settings on record: Heinis et al., 2009; cited from earlier work.
Series [3] has as its target T2, leucyl aminopeptidase from Aeromonas proteolytica (Vibrio proteolyticus, UniProt Q01693).
T2 construct: purchased Sigma A8200
Kind of series: Aminopeptidase treatment of peptides (MALDI-TOF). In kind it is in vitro ADME. How it is done: Peptide 7 before (300 μM) and after (75 μM) MTGase treatment in reaction buffer was incubated with different amounts of leucyl aminopeptidase from Aeromonas proteolytica (EC 3.4.11.10; Sigma, A8200) (3 to 352 ng, corresponding to concentrations of about 50 nM to 6 μM) in a final volume of 2 μl for 30 min at RT. The mass of the peptides was determined by MALDI-TOF mass spectrometry.

In a further series the target is T3, MDM2 peptide (res 2-125) (Homo sapiens, UniProt Q00987).
T3 construct: biotinylated MDM2 peptide (res 2-125) was immobilized on a streptavidin-coated plate
T3 sequence (Q00987 2-125): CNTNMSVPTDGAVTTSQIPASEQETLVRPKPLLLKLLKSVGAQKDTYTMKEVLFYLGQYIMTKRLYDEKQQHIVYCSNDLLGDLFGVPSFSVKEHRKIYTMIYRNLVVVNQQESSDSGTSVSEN
The experiment in a line: Competition ELISA of PEP48 phage binding to MDM2. The settings on record: TBMB conjugate. The source says:
Phage was detected using an anti-M13-HRP monoclonal antibody (1:5000, Amersham).
For orientation: In an ELISA, binding on a coated surface is turned into a signal by an enzyme label.

The mark [4] stands for this setting: IC50 Before MTGase cyclisation (bicyclic), bicyclic TBMB conjugates.
Where [5] appears, read: IC50 After MTGase cyclisation (tricyclic), tricyclic peptides after MTGase treatment.

Chain of MDM2 (res 2-125) (Q00987 2-125): as above
T1 sequence (P03952 391-638 limits assumed): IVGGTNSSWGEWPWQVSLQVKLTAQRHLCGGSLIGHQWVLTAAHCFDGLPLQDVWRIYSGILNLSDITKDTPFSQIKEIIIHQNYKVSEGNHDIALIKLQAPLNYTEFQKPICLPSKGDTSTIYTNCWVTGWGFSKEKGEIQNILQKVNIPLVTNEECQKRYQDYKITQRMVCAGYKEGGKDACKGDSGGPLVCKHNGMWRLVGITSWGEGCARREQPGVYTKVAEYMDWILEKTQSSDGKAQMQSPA
T1 sequence (P03952 20-390 partner limits assumed): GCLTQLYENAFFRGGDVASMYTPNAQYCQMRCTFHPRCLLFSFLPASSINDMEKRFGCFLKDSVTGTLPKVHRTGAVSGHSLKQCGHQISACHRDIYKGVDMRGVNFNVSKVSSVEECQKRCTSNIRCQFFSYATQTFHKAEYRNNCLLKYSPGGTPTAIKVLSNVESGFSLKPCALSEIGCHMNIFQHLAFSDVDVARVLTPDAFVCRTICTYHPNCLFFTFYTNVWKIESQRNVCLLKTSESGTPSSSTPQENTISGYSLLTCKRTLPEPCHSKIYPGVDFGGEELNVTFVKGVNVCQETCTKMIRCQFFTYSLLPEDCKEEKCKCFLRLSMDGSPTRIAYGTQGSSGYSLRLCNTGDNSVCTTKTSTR
T2 sequence (Q01693 107-405 limits assumed): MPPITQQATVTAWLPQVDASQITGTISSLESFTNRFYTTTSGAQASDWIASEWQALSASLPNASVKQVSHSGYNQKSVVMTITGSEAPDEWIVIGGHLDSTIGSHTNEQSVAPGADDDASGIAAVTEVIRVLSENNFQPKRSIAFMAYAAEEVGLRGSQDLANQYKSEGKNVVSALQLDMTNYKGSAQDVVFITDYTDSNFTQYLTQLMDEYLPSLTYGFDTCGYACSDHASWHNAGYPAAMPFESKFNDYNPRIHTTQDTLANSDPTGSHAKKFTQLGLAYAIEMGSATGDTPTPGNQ

With `CC(C)C[C@@H]1NC(=O)[C@H](CCC(=O)O)NC(=O)[C@@H](NC(=O)[C@@H](N)CO)CSCc2cc3cc(c2)CSC[C@H](NC(=O)[C@H](CCCCN)NC(=O)[C@@H]2CCCN2C(=O)[C@H](CC(N)=O)NC(=O)[C@H](Cc2c[nH]c4ccccc24)NC1=O)C(=O)N[C@@H](CCCNC(=N)N)C(=O)N[C@@H](CC(C)C)C(=O)N[C@@H](CO)C(=O)N1CCC[C@H]1C(=O)N[C@@H](Cc1ccccc1)C(=O)N[C@@H](CCC(=O)O)C(=O)N[C@H](C(=O)N[C@@H](CCCCN)C(=O)NCC(=O)O)CSC3` [PEP10] (HELM PEPTIDE1{S.C.E.L.W.N.P.K.C.R.L.S.P.F.E.C.K.G}|CHEM1{[c1c(C[*:1])cc(C[*:3])cc1C[*:2]]}$PEPTIDE1,CHEM1,2:R3-1:R1|PEPTIDE1,CHEM1,9:R3-1:R2|PEPTIDE1,CHEM1,16:R3-1:R3$$$V2.0; bridges inferred), at MDM2 (res 2-125), the “affinity of synthetic peptide for MDM2” value is on record as “micromolar or better”.

On human plasma kallikrein [1] (setting [4]), `[H][C@@]12CCCN1C(=O)[C@]1([H])CSCc3cc(cc(c3)CSC[C@@H](C(=O)NCC(N)=O)NC(=O)[C@H](CC(C)C)NC(=O)[C@H](C)NC(=O)[C@H](CCC(=O)O)NC(=O)[C@H](CC(=O)O)NC(=O)[C@H](C)NC2=O)CSC[C@H](NC(=O)[C@H](C)N)C(=O)N[C@@H](CO)C(=O)N[C@@H](CC(=O)O)C(=O)N[C@@H](CCCNC(=N)N)C(=O)N[C@@H](Cc2ccccc2)C(=O)N[C@@H](CCCNC(=N)N)C(=O)N[C@@H](CC(N)=O)C(=O)N1` [PK15, reference compound] (HELM PEPTIDE1{A.C.S.D.R.F.R.N.C.P.A.D.E.A.L.C.G.[am]}|CHEM1{[c1c(C[*:1])cc(C[*:3])cc1C[*:2]]}$PEPTIDE1,CHEM1,2:R3-1:R1|PEPTIDE1,CHEM1,9:R3-1:R2|PEPTIDE1,CHEM1,16:R3-1:R3$$$V2.0) registered a half-maximal inhibitory concentration (IC50) of 3 nM. Besides, the “factor of activity reduction on C-terminal conjugation to a protein” value on human plasma kallikrein [2] is listed as “around 10”.

In the case of `CC(C)C[C@H](NC(=O)[C@H](C)N)C(=O)N[C@@H](CCC(N)=O)C(=O)N[C@@H](C)C(=O)N[C@H]1CSCc2cc3cc(c2)CSC[C@H](NC(=O)[C@H](CC(N)=O)NC(=O)[C@H](CCCNC(=N)N)NC(=O)[C@H](Cc2ccccc2)NC(=O)[C@H](CCCNC(=N)N)NC(=O)[C@H](CC(=O)O)NC(=O)[C@H](CO)NC1=O)C(=O)N1CCC[C@H]1C(=O)N[C@@H](C)C(=O)N[C@@H](CC(=O)O)C(=O)N[C@@H](CCC(=O)O)C(=O)N[C@@H](C)C(=O)N[C@@H](CC(C)C)C(=O)N[C@H](C(=O)N[C@@H](C)C(=O)N[C@@H](CCCCN)C(=O)N[C@@H](CO)C(N)=O)CSC3` [peptide 7] (HELM PEPTIDE1{A.L.Q.A.C.S.D.R.F.R.N.C.P.A.D.E.A.L.C.A.K.S.[am]}|CHEM1{[c1c(C[*:1])cc(C[*:3])cc1C[*:2]]}$PEPTIDE1,CHEM1,5:R3-1:R1|PEPTIDE1,CHEM1,12:R3-1:R2|PEPTIDE1,CHEM1,19:R3-1:R3$$$V2.0), the values for the IC50 against human plasma kallikrein [1] (setting [5]) and at human plasma kallikrein [1] (setting [4]) were 200 nM and 259 nM, respectively. In addition, the “inhibition of human plasma kallikrein, fold weaker than parental inhibitor PK15” value on human plasma kallikrein [1] is reported as “about 70 fold”. For the same compound, the “amount of exopeptidase at which exocyclic amino acids (Ala-Leu-Gln-Ala) were degraded” value in series [3] (bicyclic peptide, 30 min at RT) is on record as at least 70 ng. The “exopeptidase needed to degrade the Gln-Ala dipeptide” value in series [3] (tricyclic peptide, compared with bicyclic) is “higher exopeptidease concentrations were required”.

For the compound `CC(C)C[C@@H]1NC(=O)[C@H](C)NC(=O)[C@H](CCC(=O)O)NC(=O)[C@H](CC(=O)O)NC(=O)[C@H](C)NC(=O)[C@@H]2CCCN2C(=O)[C@@H]2CSCc3cc(cc(c3)CSC[C@@H](C(=O)N[C@@H](C)C(=O)N[C@@H](CCCCN)C(=O)N[C@@H](CO)C(N)=O)NC1=O)CSC[C@H](NC(=O)[C@H](C)NC(=O)[C@H](CCC(N)=O)NC(=O)[C@H](CC(C)C)NC(=O)[C@H](C)NC(=O)[C@@H](N)Cc1c[nH]c3ccccc13)C(=O)N[C@@H](CO)C(=O)N[C@@H](CC(=O)O)C(=O)N[C@@H](CCCNC(=N)N)C(=O)N[C@@H](Cc1ccccc1)C(=O)N[C@@H](CCCNC(=N)N)C(=O)N[C@@H](CC(N)=O)C(=O)N2` [peptide 8] (HELM PEPTIDE1{W.A.L.Q.A.C.S.D.R.F.R.N.C.P.A.D.E.A.L.C.A.K.S.[am]}|CHEM1{[c1c(C[*:1])cc(C[*:3])cc1C[*:2]]}$PEPTIDE1,CHEM1,6:R3-1:R1|PEPTIDE1,CHEM1,13:R3-1:R2|PEPTIDE1,CHEM1,20:R3-1:R3$$$V2.0), the figures for the IC50 on human plasma kallikrein [1] (setting [5]) and at human plasma kallikrein [1] (setting [4]) were 196 nM and 185 nM, respectively. In addition, the “inhibition of human plasma kallikrein, fold weaker than parental inhibitor PK15” value at human plasma kallikrein [1] is “about 70 fold”.

On to “H-SCVRFGWTCDNSWHGCKG-OH (cysteine pairing not given here) [PEP48, bicyclic peptide selected against MDM2]”, for which the “affinity of synthetic peptide for MDM2” value on MDM2 (res 2-125) was “micromolar or better”. Moreover, the Kd at MDM2 (res 2-125) (entire bicyclic peptide, read-out: binding affinity (Kd) for MDM2) was 500 to 800 nM; at MDM2 (res 2-125) (measured λex=280 nm, read-out: Kd, peptide + MDM2) it was 760 nM; at MDM2 (res 2-125) (measured λex=295 nm, read-out: Kd, peptide + MDM2), 567 nM. Besides, at MDM2 peptide (res 2-125), the “binding site on MDM2 by competition ELISA” value is listed as “bind to the same site as a linear peptide previously shown to block the p53-MDM2 interaction”.

The values above are taken from patent US20120101253A1, “STRUCTURED POLYCYCLIC PEPTIDE” (priority 2009, published 2012).
